Measurements taken from ChEMBL document CHEMBL1201862, “PubChem BioAssay data set” (2004).
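Compound exposure: 48 hours, 5 concentrations, 96-well plates. At the GI50, growth is halved.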 Calls of active or inactive are those of the source. Cut-off read from the data, not from the text of the source: active = GI50 up to about 1.1 µM and inactive = higher.

Columns and labels:
Assay in all cases: DTP human tumour cell line panel, 48 h
DMS-114 = test system: DMS-114
HOP-92 = test system: HOP-92
HL-60 = test system: HL-60
TK-10 = test system: TK-10
ACHN = test system: ACHN
SF-268 = test system: SF-268
A498 = test system: A498
OVCAR-4 = test system: OVCAR-4
KM-20L2 = test system: KM-20L2
LXFL 529 = test system: LXFL 529
HOP-62 = test system: HOP-62
786-0 = test system: 786-0
IGROV-1 = test system: IGROV-1
M14 = test system: M14
SK-MEL-2 = test system: SK-MEL-2

| Structure (SMILES) | GI50 (DMS-114) | GI50 (HOP-92) | GI50 (HL-60) | GI50 (TK-10) | GI50 (ACHN) | GI50 (SF-268) | GI50 (A498) | GI50 (OVCAR-4) | GI50 (KM-20L2) | GI50 (LXFL 529) | GI50 (HOP-62) | GI50 (786-0) | GI50 (IGROV-1) | GI50 (M14) | GI50 (SK-MEL-2) |
| --- | --- | --- | --- | --- | --- | --- | --- | --- | --- | --- | --- | --- | --- | --- | --- |
| CC(=O)c1cccc(N2COC(C)(C)c3nc4ccccc4n3C2)c1 | > 100 µM (inactive) | > 100 µM (inactive) | > 100 µM (inactive) | > 100 µM (inactive) | > 100 µM (inactive) | > 100 µM (inactive) | > 100 µM (inactive) | 14.3 µM (inactive) | > 100 µM (inactive) | > 100 µM (inactive) | > 100 µM (inactive) | > 100 µM (inactive) | > 100 µM (inactive) | > 100 µM (inactive) | > 100 µM (inactive) |
| O=S(O)CCCSSc1ccccc1 | 16.8 µM (inactive) |  |  | 40.1 µM (inactive) | 48 µM (inactive) | 18.7 µM (inactive) | 51.9 µM (inactive) | 98.4 µM (inactive) | 51.1 µM (inactive) | 32.5 µM (inactive) | 57.7 µM (inactive) | 66.8 µM (inactive) | 14.7 µM (inactive) | 37.1 µM (inactive) | 74.6 µM (inactive) |
| O=C(Cc1ccccc1)NN1C(=O)C(Cl)C1c1ccccc1Cl (stereo unspecified) | 32.6 µM (inactive) | > 100 µM (inactive) | 30.1 µM (inactive) | > 100 µM (inactive) | > 100 µM (inactive) | > 70.1 µM (inactive) | > 100 µM (inactive) | > 100 µM (inactive) | 98.6 µM (inactive) | 33.6 µM (inactive) | > 100 µM (inactive) | 71.8 µM (inactive) | 39 µM (inactive) | > 100 µM (inactive) | > 100 µM (inactive) |
| O=C1CCC(=O)c2sccc2N1 | > 100 µM (inactive) | > 100 µM (inactive) | > 100 µM (inactive) | > 100 µM (inactive) | > 100 µM (inactive) | > 100 µM (inactive) | > 100 µM (inactive) | > 100 µM (inactive) | > 100 µM (inactive) | > 100 µM (inactive) | > 100 µM (inactive) | > 100 µM (inactive) | > 100 µM (inactive) | > 100 µM (inactive) | > 100 µM (inactive) |
| COc1ccc2c(c1)C=C(C(C)(C)C)NS2(=O)=O | > 100 µM (inactive) | > 100 µM (inactive) | > 100 µM (inactive) | > 100 µM (inactive) | > 100 µM (inactive) | > 100 µM (inactive) | > 100 µM (inactive) | > 100 µM (inactive) | > 100 µM (inactive) | > 100 µM (inactive) | > 100 µM (inactive) | > 100 µM (inactive) | > 100 µM (inactive) | > 100 µM (inactive) | > 100 µM (inactive) |
| CC(=O)Nc1cc2c(s1)CCC1CC(=O)NN=C21 (stereo unspecified) | > 100 µM (inactive) |  | > 100 µM (inactive) | > 100 µM (inactive) | > 100 µM (inactive) | > 100 µM (inactive) |  | > 100 µM (inactive) | > 100 µM (inactive) | > 100 µM (inactive) | > 100 µM (inactive) | > 100 µM (inactive) | > 100 µM (inactive) | > 100 µM (inactive) | > 100 µM (inactive) |
| O=C(N/C(=C\c1ccccc1O)c1nc2ccccc2[nH]1)c1ccccc1 | 41.5 µM (inactive) | 23.8 µM (inactive) |  | 41.5 µM (inactive) | 73.8 µM (inactive) | 37.3 µM (inactive) | 62.4 µM (inactive) | > 100 µM (inactive) | > 100 µM (inactive) | 51.2 µM (inactive) | 79.6 µM (inactive) | 48.1 µM (inactive) | > 100 µM (inactive) | > 100 µM (inactive) | 74.1 µM (inactive) |
| N#CC(C#N)C(c1ccccc1)c1ccccc1 | 70.8 µM (inactive) | > 100 µM (inactive) | > 100 µM (inactive) | > 100 µM (inactive) | > 100 µM (inactive) | > 100 µM (inactive) | > 100 µM (inactive) | > 100 µM (inactive) | > 100 µM (inactive) | > 100 µM (inactive) | > 100 µM (inactive) | > 100 µM (inactive) | > 100 µM (inactive) | > 100 µM (inactive) | > 100 µM (inactive) |
| Cc1cc(NCCCCCCNc2cc(C)nc3ccc(Cl)cc23)c2cc(Cl)ccc2n1 | 18.9 µM (inactive) |  | 7.4 µM (inactive) | 27 µM (inactive) | 33 µM (inactive) | 14.7 µM (inactive) | > 100 µM (inactive) | 20 µM (inactive) | 15.8 µM (inactive) | > 100 µM (inactive) | 75.5 µM (inactive) | 17.4 µM (inactive) |  | > 100 µM (inactive) | 26.2 µM (inactive) |
| CCN(CC)C(=O)COc1ccc(Br)cc1Br | > 100 µM (inactive) | 87.5 µM (inactive) | 83.9 µM (inactive) | > 100 µM (inactive) | > 100 µM (inactive) | > 100 µM (inactive) | > 100 µM (inactive) | > 100 µM (inactive) | > 100 µM (inactive) | > 100 µM (inactive) | > 100 µM (inactive) | > 100 µM (inactive) |  | > 100 µM (inactive) | > 100 µM (inactive) |
| CC(=O)OCC1OC(n2cc(F)c(=O)[nH]c2=O)C(NC(=O)N(CCCl)N=O)C(OC(C)=O)C1OC(C)=O (stereo unspecified) | 81.3 µM (inactive) | > 100 µM (inactive) | 51.5 µM (inactive) | > 100 µM (inactive) | > 100 µM (inactive) | 17.3 µM (inactive) | > 100 µM (inactive) | > 100 µM (inactive) | > 100 µM (inactive) | > 100 µM (inactive) | > 100 µM (inactive) | 54.2 µM (inactive) | > 100 µM (inactive) | > 100 µM (inactive) |  |
| CCCCN(CCCC)CC(C(C)=O)C(c1ccccc1)c1c(O)c2ccccc2oc1=O (stereo unspecified) | 91 µM (inactive) | 28 µM (inactive) | > 100 µM (inactive) | > 100 µM (inactive) | > 100 µM (inactive) | > 100 µM (inactive) |  | > 100 µM (inactive) | > 100 µM (inactive) | > 100 µM (inactive) | > 100 µM (inactive) | > 100 µM (inactive) | > 100 µM (inactive) | > 100 µM (inactive) | > 100 µM (inactive) |
| COC(=O)C(C(=O)C(=O)Nc1ccc(C)cc1)c1nc2ccc([N+](=O)[O-])cc2nc1O (stereo unspecified) | 21.3 µM (inactive) |  | 35.6 µM (inactive) | > 100 µM (inactive) | > 100 µM (inactive) | > 100 µM (inactive) | > 100 µM (inactive) | > 100 µM (inactive) | > 100 µM (inactive) | 51.6 µM (inactive) | > 100 µM (inactive) | > 100 µM (inactive) | > 100 µM (inactive) | > 100 µM (inactive) | > 100 µM (inactive) |
| CC1CC(c2cccc3c2OCO3)=Nc2ccccc2S1 (stereo unspecified) | 65.6 µM (inactive) | > 100 µM (inactive) | > 100 µM (inactive) | > 100 µM (inactive) | > 100 µM (inactive) | > 100 µM (inactive) | > 100 µM (inactive) | > 100 µM (inactive) | > 100 µM (inactive) | > 100 µM (inactive) |  | > 100 µM (inactive) | > 100 µM (inactive) | > 100 µM (inactive) | > 100 µM (inactive) |
| CN(C)c1ccc(-c2nc(N)nc3c2CCCC3)cc1 | 38.5 µM (inactive) |  | 29.3 µM (inactive) | 49.1 µM (inactive) | 26.4 µM (inactive) | 47.2 µM (inactive) | 35.6 µM (inactive) |  | 57.8 µM (inactive) | 63.8 µM (inactive) | 99.1 µM (inactive) | 82 µM (inactive) | 64.4 µM (inactive) | 68.1 µM (inactive) | 56.8 µM (inactive) |
| Cc1ccc(S(=O)(=O)SCc2ccccc2CSS(=O)(=O)c2ccc(C)cc2)cc1 | 70.8 µM (inactive) | 21.7 µM (inactive) | 12.1 µM (inactive) | > 100 µM (inactive) | 29 µM (inactive) | 36.6 µM (inactive) | 91.2 µM (inactive) | 18.7 µM (inactive) | 78.3 µM (inactive) | 15.5 µM (inactive) | > 100 µM (inactive) | 18.2 µM (inactive) | > 100 µM (inactive) | 19.1 µM (inactive) |  |
| CC1(C)COC(c2cccc3c2C(=O)c2cccc(Cl)c2-3)=N1 | 36 µM (inactive) |  | 28.4 µM (inactive) | 41.7 µM (inactive) | 51.1 µM (inactive) | 56.5 µM (inactive) | 32.1 µM (inactive) | 44.1 µM (inactive) | 39.9 µM (inactive) | 37.7 µM (inactive) |  | 39.4 µM (inactive) | > 100 µM (inactive) | 47.9 µM (inactive) | > 100 µM (inactive) |
| CN(C)CC/C(=N\Nc1ccc(Cl)cc1)c1ccccc1 | 0.933 µM (active) |  | 0.369 µM (active) | 0.593 µM (active) | 0.478 µM (active) | 0.566 µM (active) | 3.64 µM (inactive) | 1.77 µM (inactive) | 0.176 µM (active) | 0.182 µM (active) | 1.68 µM (inactive) | 1.26 µM (inactive) | 1.28 µM (inactive) | 1.67 µM (inactive) | 1.86 µM (inactive) |
| CCCc1c(C(=O)OCC)[nH]c(C(=O)CCC(=O)c2[nH]c(C(=O)OCC)c(CCC)c2C(=O)OCC)c1C(=O)OCC | > 100 µM (inactive) | > 100 µM (inactive) | > 100 µM (inactive) | > 100 µM (inactive) | > 100 µM (inactive) | > 100 µM (inactive) | > 100 µM (inactive) | 48.3 µM (inactive) | > 100 µM (inactive) | > 100 µM (inactive) |  | 54.6 µM (inactive) | > 100 µM (inactive) | > 100 µM (inactive) | 68.9 µM (inactive) |
